Results reported in US7175872B2, “Pyridinium-Betain compounds for use as taste modulators” (Nestec S.A., priority 2002, dated 2007).
“Also recorded” adds a separate entry of the source. Counter-ions that a name gives are not always drawn.

How the values were obtained:
Format in all cases: in vivo
[1] = system: salty taste of NaCl; test: Salt taste detection threshold of NaCl/Pyridinium-Betaine mixtures (triangle test, sensory panel); conditions: mixture with NaCl, pH 7.0
Experimental: • Sensory panel training: […] Sensory analyses were performed in a sensory panel room at 22-25° C. on three different sessions. • Taste thresholds: The taste thresholds of the tastants or mixtures containing basic tastants plus Pyridinium-Betains were determined in a triangle test using Evian® mineral water as the solvent at a defined pH ([…] and H.-D. Belitz, Z. Lebensm. Unters. Forsch. 1975, 159, 65-72). The samples (3 mL) were presented in order of increasing concentrations (serial 1:1 dilutions). The threshold values evaluated in two different sessions were averaged. […] The taste intensities of aqueous (Evian®) solutions containing a basic tastant, such as glucose and MSG, for example, in constant concentrations and the compounds of the general formula (A), for example […], in various concentrations were compared with those of a solution containing the basic tastant only. […] The relative taste strength (taste enhancing factor) of a mixture containing the basic […] was related to the basic tastants glucose, MSG, or other tastants, respectively, as standard substances, and was determined as the ratio of the concentrations c of iso-intensely tasting solutions of the basic tastant, such as glucose (glc), and the mixture containing tastant plus Pyridinium-Betain, […])=[…] […] This taste enhancing effect is illustrated in examples.

[2] = system: beef taste recombinate; test: Effect of Alapyridaine on the taste profile of a beef broth taste recombinate; conditions: pH 5
Description: The beef taste recombinate (K. Shima et al., J. Agric. Food. Chem. 1998, 46, 1465–1468) consisting of 16 amino acids, 4 sugars, three 5′-nucleotides, 3 carbonic acids, 3 salts, and 4 other compounds was used as a sample having a basic brothy taste at pH 5, i.e. (in mg/L water) threonine (68), serine (38), MSG (64), proline (16), glycine (56), alanine (192), valine (34), methionine (20), isoleucine (16), leucine (28), tyrosine (38), phenylalanine (26), lysine hydrochloride (44), histidine (38), arginine (32), taurine (248), ribose (4), mannose (8), fructose (20), glucose (40), IMP.2Na.5H20 (424), GMP.2Na7H20 (80), AMP (60), pyroglutamic acid (1296), lactic acid (3567), succinic acid (98), NaCl (854), KCl (3940), MgCl2.6H20 (1104), CaCl2.2H20 (14), H3PO4, carnosine (912), creatine (1106), and creatinine (572) were dissolved in 1 L of water, and the pH was adjusted to 5.0.
The sensory panel was asked to score the given taste qualities of the biomimetic beef taste recombinate on a scale from 0 (not detectable) to 5 (strong). To study the influence of Alapyridaine on the taste qualities of that recombinate, a triangle test was performed with two glass vials containing the pure beef taste recombinate, and one glass vial containing the beef taste recombinate plus a known amount of Alapyridaine. […]

[3] = system: sweet taste of glucose; test: Iso-intensity: relative sweetness of glucose/Alapyridaine mixtures
Experimental: • Sensory panel training: […] Sensory analyses were performed in a sensory panel room at 22-25° C. on three different sessions. • Taste thresholds: The taste thresholds of the tastants or mixtures containing basic tastants plus Pyridinium-Betains were determined in a triangle test using Evian® mineral water as the solvent at a defined pH ([…] and H.-D. Belitz, Z. Lebensm. Unters. Forsch. 1975, 159, 65-72). The samples (3 mL) were presented in order of increasing concentrations (serial 1:1 dilutions). The threshold values evaluated in two different sessions were averaged. […] The taste intensities of aqueous (Evian®) solutions containing a basic tastant, such as glucose and MSG, for example, in constant concentrations and the compounds of the general formula (A), for example […], in various concentrations were compared with those of a solution containing the basic tastant only. […] The relative taste strength (taste enhancing factor) of a mixture containing the basic […] was related to the basic tastants glucose, MSG, or other tastants, respectively, as standard substances, and was determined as the ratio of the concentrations c of iso-intensely tasting solutions of the basic tastant, such as glucose (glc), and the mixture containing tastant plus Pyridinium-Betain, […])=[…] […]

[4] = system: sweet taste of sucrose; test: Sweet taste detection threshold of sucrose/Pyridinium-Betaine mixtures (triangle test, sensory panel); set-up: key to Threshold decrease: fold decrease of sweet threshold vs pure sucrose; conditions: equimolar mixture with sucrose; for Threshold decrease: vs sucrose in water 12.5 mmol/L
Experimental: • Sensory panel training: […] Sensory analyses were performed in a sensory panel room at 22-25° C. on three different sessions. • Taste thresholds: The taste thresholds of the tastants or mixtures containing basic tastants plus Pyridinium-Betains were determined in a triangle test using Evian® mineral water as the solvent at a defined pH ([…] and H.-D. Belitz, Z. Lebensm. Unters. Forsch. 1975, 159, 65-72). The samples (3 mL) were presented in order of increasing concentrations (serial 1:1 dilutions). The threshold values evaluated in two different sessions were averaged. […] The taste intensities of aqueous (Evian®) solutions containing a basic tastant, such as glucose and MSG, for example, in constant concentrations and the compounds of the general formula (A), for example […], in various concentrations were compared with those of a solution containing the basic tastant only. To achieve this, triangle tests were performed with two glass vials containing the basic tastant in constant concentrations, and one glass vial containing a stepwise 1:1-diluted mixture of basic […]. […] The relative taste strength (taste enhancing factor) of a mixture containing the basic […] was related to the basic tastants glucose, MSG, or other tastants, respectively, as standard substances, and was determined as the ratio of the concentrations c of iso-intensely tasting solutions of the basic tastant, such as glucose (glc), and the mixture containing tastant plus Pyridinium-Betain, […])=[…] This taste enhancing effect is illustrated in examples. The sweet taste thresholds of equimolar mixtures of sweet tasting compounds and various Pyridinium-Betaines were determined by a triangle test using EVIAN® mineral water as the solvent. The sensorial evaluations were performed at different pH values. The equimolar mixture of […] and sucrose at pH 7.0 was evaluated with a 4-fold lower sweet threshold concentration than pure sucrose (Table 1).

SMILES: CC(C(=O)[O-])[n+]1cc(O)ccc1CO (stereo not shown) [Alapyridaine, N-(1-carboxyethyl)-3-hydroxy-6-hydroxymethyl-pyridinium inner salt]
- Salt detection threshold [1]: 2.0 mmol/kg water
- Taste quality [1]: salty
- Threshold decrease ([1]; vs NaCl in water 10.0 mmol/L): 5.0
- effect on taste profile of beef taste recombinate ([2]; 0.5 mg/L Alapyridaine added): increased the umami character and decreased the sour note
- effect on taste profile of beef taste recombinate ([2]; 5 mg/L Alapyridaine added): more intense umami, sweet and salty taste and a reduced sourness
- relative sweetness (iso-intensity) ([3]; 80 mmol/kg glucose and 125 mmol/kg Alapyridaine vs 80 mmol/kg glucose): 8 -fold
- maximum relative sweetness (iso-intensity) ([3]; 267 mmol/kg glucose and 125 mmol/kg Alapyridaine vs reference solution 267 mmol/kg glucose): 5.3 -fold
- Sweet detection threshold ([4]; pH 5.0): 3.0 mmol/kg water
- Taste quality ([4]; pH 5.0): sour taste; also recorded: sweet/
- Threshold decrease ([4]; pH 5.0): 4.0
- Sweet detection threshold ([4]; pH 7.0): 3.0 mmol/kg water
- Taste quality ([4]; pH 7.0): sweet
- Threshold decrease ([4]; pH 7.0): 4
- Sweet detection threshold ([4]; pH 9.0): 1.5 mmol/kg water
- Taste quality ([4]; pH 9.0): sweet
- Threshold decrease ([4]; pH 9.0): 8
